The text below walks through data of publication PMC7734625, “Stabilization Strategies for Linear Minigastrin Analogues: Further Improvements via the Inclusion of Proline into the Peptide Sequence” (Journal of Medicinal Chemistry, 2020).

In one data set the target is T1, human CCK2R (Homo sapiens, UniProt P32239).
T1 construct: expressed in transfected cells; host or cells: A431 human epidermoid carcinoma cells, stably transfected (pCR3.1), provided by Dr. Luigi Aloj
T1 sequence (P32239 1-447): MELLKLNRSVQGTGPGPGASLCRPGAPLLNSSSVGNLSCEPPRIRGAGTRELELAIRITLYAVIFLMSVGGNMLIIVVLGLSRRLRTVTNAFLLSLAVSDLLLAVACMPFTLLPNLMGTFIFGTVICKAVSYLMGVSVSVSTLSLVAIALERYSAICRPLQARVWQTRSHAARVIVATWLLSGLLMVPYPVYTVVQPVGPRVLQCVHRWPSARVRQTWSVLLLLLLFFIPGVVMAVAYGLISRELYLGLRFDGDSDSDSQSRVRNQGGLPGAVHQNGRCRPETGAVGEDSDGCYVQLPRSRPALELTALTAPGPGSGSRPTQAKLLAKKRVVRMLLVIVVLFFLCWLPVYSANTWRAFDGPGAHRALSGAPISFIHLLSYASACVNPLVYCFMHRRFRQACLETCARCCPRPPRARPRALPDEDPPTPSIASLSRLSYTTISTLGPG
The settings on record: A431-CCK2R cells, previous assays; cited from earlier work.

A short description of data set [1]: in vivo stability studies in BALB/c mice. The settings on record: 60 min p.i., i.v., n = 1. On the procedure: Metabolic studies evaluating the stability of the radioligands were carried out in 7- to 8-week-old female BALB/c mice. With the ^111In-labeled peptide derivatives, the studies were performed for the time point of 10 min p.i. (n = 2). With the ^177Lu-labeled peptide derivatives, additional studies were also carried out for the time point of 30 min and 60 min p.i. (n = 1 for each time point). To allow monitoring of the metabolites by analytical HPLC, the mice were injected with a higher amount of radioactivity (6–9 MBq indium-111, 30–45 MBq lutetium-177) corresponding to ∼1 nmol total peptide intravenously through a lateral tail vein. At different time points, the mice were euthanized by cervical dislocation and urine and a blood sample was collected. Liver and kidneys were excised and homogenized in 20 mM HEPES buffer pH 7.3. The amount of intact radiopeptide and the formation of metabolites was analyzed by analytical HPLC. Prior to injection into the HPLC system, all samples were treated as described for human serum and rat organ homogenate samples.

In data set [2] the test system is A431-CCK2R/A431-mock xenografts. In words: biodistribution in A431-CCK2R/A431-mock xenografted BALB/c nude mice. In kind it is in vivo. On the procedure: Biodistribution studies evaluating the tumor uptake of the radiolabeled peptides were performed in 7- to 9-week-old female athymic BALB/c nude mice (Charles River, Sulzfeld, Germany). For the induction of tumor xenografts, 150 μL of DMEM containing 2 × 10^6 A431-CCK2R and A431-mock cells were injected subcutaneously in the right and left flank of each mouse, respectively. And 10–14 days after injection, tumors reached a medium weight of ∼0.25 g. The mice were divided into groups of four and injected intravenously via a lateral tail vein with 0.2 MBq of ^111In-labeled compound (0.02 nmol) and 0.7 and 1.5 MBq of the ^177Lu-labeled compound (0.02 and 0.15 nmol). At 4 and 12 h p.i., the mice were sacrificed and the tumors and other tissues (blood, lung, heart, muscle, spleen, intestine, liver, kidneys, stomach, and pancreas) were removed, weighed, and their radioactivity measured in the γ counter together with the rest of the body. Initial biodistribution studies were performed with the three ^177Lu-labeled CCK2R-targeting ligands at an injected peptide amount of 20 pmol for the time point of 4 h p.i. From these studies, two peptide analogues were selected to further characterize the biodistribution profile also at a later time point of 12 h p.i. and at a higher injected peptide amount of 150 pmol. Additional animal studies were performed for the ^111In-labeled conjugates. Percentage of injected activity per gram tissue (%IA/g), tumor-to-organ activity ratios, as well as whole body activity were calculated for each sample and statistical analysis using independent two-population t-test (significance level p < 0.05) was performed using Origin software. For the comparison of more than two groups, data were analyzed using one-way analysis of variance (ANOVA) Holm–Bonferroni-adjusted post hoc analysis (significance level p < 0.05) using Microsoft Excel 2010 software (Microsoft Excel 2010, Microsoft Corporation, WA).

Data set [3] is described as follows: stability in rat kidney homogenate. In kind it is in vitro ADME. The settings on record: 120 min incubation, 37 °C. On the procedure:
In vitro stability studies characterizing the complex stability as well as the metabolic stability of the radiolabeled peptide analogues were carried out in PBS, fresh human serum, and rat liver and rat kidney homogenates. Organ homogenates were prepared from freshly dissected organs homogenized (IKA-Werke, Staufen, Germany) for 1 min at room temperature (RT) in a 20 mM 4-(2-hydroxyethyl)-1-piperazineethanesulfonic acid (HEPES) buffer at pH 7.3 (30% w/v). A fraction of 0.1 mL of radiolabeled peptide diluted in PBS/HEPES was added to 0.9 mL of medium reaching a final concentration of ∼500 pmol/mL and incubated at 37 °C for up to 120 min in rat organ homogenates (n = 2) and up to 24 h in human serum or PBS (n = 1). At each time point, 100 μL of sample was taken treated with 150 μL of ACN to precipitate proteins centrifuged (2000g, 2 min), diluted with water (1:1), and a fraction of 100 μL was injected to the analytical HPLC system. For serum and tissue homogenates, only the soluble phase extracted after centrifugation was analyzed, whereas the radioactivity lost in the pellet was not considered.

Non-standard residues stand in square brackets, D forms with d. Residues, ends and D or L forms follow the SMILES beside them. *: point of attachment. DOTA = O=C(O)CN1CCN(CC(=O)O)CCN(CC(=O)*)CCN(CC(=O)O)CC1; 1Nal = N[C@@H](Cc1cccc2ccccc12)C(=O)O; NMeNle = CCCC[C@H](NC)C(=O)O

“DOTA-MG11: DOTA conjugate of the truncated MG analogue [DGlu^1,DesGlu^2–6]MG (MG11) (EAYGWMDF; Synthetic [DGlu1,desGlu2-6]minigastrin: residue 1 is D-Glu, N-terminal DOTA, C-terminal amide (Phe-NH2), Tyr not sulfated)”: in the data set with human CCK2R, the concentration for half-maximal inhibition (IC50) is 0.9 ± 0.3 nM.
As for `CCCC[C@@H](C(=O)N[C@@H](CC(=O)O)C(=O)N[C@@H](Cc1cccc2ccccc12)C(N)=O)N(C)C(=O)[C@H](Cc1c[nH]c2ccccc12)NC(=O)CNC(=O)[C@H](Cc1ccc(O)cc1)NC(=O)[C@@H]1CCCN1C(=O)[C@@H](CCC(=O)O)NC(=O)CN1CCN(CC(=O)O)CCN(CC(=O)O)CCN(CC(=O)O)CC1` [[^177Lu]Lu-1] [metal not drawn] ({DOTA}-[dE]PYGW[NMeNle]D[1Nal]-NH2), in data set [1], the “intact radiopeptide in blood” value is 56.6%, the “intact radiopeptide in kidneys” value amounted to 8.1%, the “intact radiopeptide in liver” value is 30.8% and the “intact radiopeptide in urine” value is reported as 23.0%. Moreover, in data set [2] (20 pmol, 4 h p.i.), the “tumor uptake in A431-CCK2R xenografts” value is on record as 35 % IA/g. Besides, in data set [2] (150 pmol, 4 h p.i.), the “uptake in A431-mock xenografts” value was determined as 0.32 ± 0.14 % IA/g, the uptake in blood was 0.07 ± 0.04 % IA/g, the uptake in heart is reported as 0.09 ± 0.03 % IA/g and the uptake in spleen is 0.18 ± 0.05 % IA/g. Further, in data set [2] (A431-CCK2R xenografts, 12 h p.i. relative to 4 h p.i., 20 pmol), the tumor retention is above 60%. Moreover, the “reduction of tumor uptake in A431-CCK2R xenografts” value in data set [2] (injected peptide amount increased to 150 pmol vs 20 pmol, 4 h p.i.) is on record as “about 50%”. For the same compound, the “intact radiopeptide in rat kidney homogenate” value in data set [3] is recorded as around 5%.

The term IC50 denotes the midpoint of a concentration-inhibition curve.
